Experimental data published in PMC6429214, “Design, Synthesis and Biological Evaluation of Isoxazole-Based CK1 Inhibitors Modified with Chiral Pyrrolidine Scaffolds” (Molecules, 2019).

Experiments:
Test in all cases: 33PanQinase panel
Assay type in all cases: biochemical
[1] = molecular target: T1, CDK7/CycH/MAT1 (Homo sapiens, UniProt P50613); settings: CDK7/CycH/MAT1, 1 µM; read-out: Residual Activity (%)
T1 construct: purchased ProQinase
Method: (§1) Figure 5 Dendrogram representation of the selectivity profile of 29d at a concentration of 1 μM in a panel of 320 wild-type kinases (ProQinase, Freiburg, Germany). The residual kinase activity was determined compared to DMSO control. Images were generated using TREEspot Software Tool, DISCOVERX CORPORATION 2010.
(§2) Figure S1. X-ray crystal structure of intermediate compound 25d (ORTEP drawing with ellipsoids at 30% probability). CCDC 1589043 contains the supplementary crystallographic data for this paper. The data can be obtained free of charge from The Cambridge Crystallographic Data Centre via www.ccdc.cam.ac.uk/structures.
(§3) Table S1 Data collection, structure refinement and Ramachrandran plot results of protein crystallization of CK1δ in complex with compound 30a and 30b, respectively.
(§4) Root-mean-square deviations
(§5) Additionally allowed 2.6 2.2
(§6) Table S2. Selectivity profile of compound 29d. The inhibitor has been screened at a concentration of 1 µM over a panel of 320 wild-type protein kinases by ProQinase GmbH (Freiburg, Germany) using an activity-based radiometric 33PanQinase® assay. Results are presented as percentage of residual kinase activity relative to […]
(§7) control. The final DMSO concentration was 1 % in each reaction-mix. Classification of protein kinase families refers to Manning et al. (Manning, G.; Whyte, D. B.; Martinez, R.; Hunter, T.; Sudarsanam, S. The Protein Kinase Complement of the Human Genome. Science 2002, 298, 1912–1934): AGC = containing PKA, PKG, PKC families; […] = containing Cdk, MAPK, GSK3, CLK families; STE = homologs of yeast sterile 7, sterile 11, sterile 20 kinases; TK = tyrosine kinase; TKL = tyrosine kinase-like.
(§8) Kinase name Kinase family Residual Activity (%)

[2] = molecular target: T2, MEK2 (Homo sapiens, UniProt P36507); settings: MEK2, 1 µM; read-out: Residual Activity (%)
T2 construct: purchased ProQinase
Method: as §1, §2, §3, §4, §5, §6, §7, §8

[3] = molecular target: T3, PRK1 (Homo sapiens, UniProt Q16512); settings: PRK1, 1 µM; read-out: Residual Activity (%)
T3 construct: purchased ProQinase
Method: as §1, §2, §3, §4, §5, §6, §7, §8

[4] = molecular target: T4, TYK2 (Homo sapiens, UniProt P29597); settings: TYK2, 1 µM; read-out: Residual Activity (%)
T4 construct: purchased ProQinase
Method: as §1, §2, §3, §4, §5, §6, §7, §8

[5] = molecular target: T5, MARK1 (Homo sapiens, UniProt Q9P0L2); settings: MARK1, 1 µM; read-out: Residual Activity (%)
T5 construct: purchased ProQinase
Method: as §1, §2, §3, §4, §5, §6, §7, §8

[6] = molecular target: T6, FER (Homo sapiens, UniProt P16591); settings: read-out: Residual Activity (%)
T6 construct: purchased ProQinase
Method: as §1, §2, §3, §4, §5, §6, §7, §8

[7] = molecular target: T7, CAMK2G (Homo sapiens, UniProt Q13555); settings: read-out: Residual Activity (%)
T7 construct: purchased ProQinase
Method: as §1, §2, §3, §4, §5, §6, §7, §8

[8] = molecular target: T8, AXL (Homo sapiens, UniProt P30530); settings: read-out: Residual Activity (%)
T8 construct: purchased ProQinase
Method: as §1, §2, §3, §4, §5, §6, §7, §8

[9] = molecular target: T9, MAP3K11 (Homo sapiens, UniProt Q16584); settings: MAP3K11, 1 µM; read-out: Residual Activity (%)
T9 construct: purchased ProQinase
Method: as §1, §2, §3, §4, §5, §6, §7, §8

[10] = molecular target: T10, PKC-theta (Homo sapiens, UniProt Q04759); settings: read-out: Residual Activity (%)
T10 construct: purchased ProQinase
Method: as §1, §2, §3, §4, §5, §6, §7, §8

[11] = molecular target: T11, CAMK2A (Homo sapiens, UniProt Q9UQM7); settings: read-out: Residual Activity (%)
T11 construct: purchased ProQinase
Method: as §1, §2, §3, §4, §5, §6, §7, §8

[12] = molecular target: T12, CDK9/CycK (Homo sapiens, UniProt P50750); settings: read-out: Residual Activity (%)
T12 construct: purchased ProQinase
Method: as §1, §2, §3, §4, §5, §6, §7, §8

[13] = molecular target: T13, JAK2 (Homo sapiens, UniProt O60674); settings: JAK2, 1 µM; read-out: Residual Activity (%)
T13 construct: purchased ProQinase
Method: as §1, §2, §3, §4, §5, §6, §7, §8

[14] = molecular target: T14, PLK3 (Homo sapiens, UniProt Q9H4B4); settings: PLK3, 1 µM; read-out: Residual Activity (%)
T14 construct: purchased ProQinase
Method: as §1, §2, §3, §4, §5, §6, §7, §8

[15] = molecular target: T15, MAP3K9 (Homo sapiens, UniProt P80192); settings: MAP3K9, 1 µM; read-out: Residual Activity (%)
T15 construct: purchased ProQinase
Method: as §1, §2, §3, §4, §5, §6, §7, §8

[16] = molecular target: T16, RIPK5 (Homo sapiens, UniProt Q6XUX3); settings: RIPK5, 1 µM; read-out: Residual Activity (%)
T16 construct: purchased ProQinase
Method: as §1, §2, §3, §4, §5, §6, §7, §8

[17] = molecular target: T17, CDK9/CycT1 (Homo sapiens, UniProt P50750); settings: CDK9/CycT1, 1 µM; read-out: Residual Activity (%)
T17 construct: purchased ProQinase
Method: as §1, §2, §3, §4, §5, §6, §7, §8

[18] = molecular target: T18, STK23 (Homo sapiens, UniProt Q9UPE1); settings: STK23, 1 µM; read-out: Residual Activity (%)
T18 construct: purchased ProQinase
Method: as §1, §2, §3, §4, §5, §6, §7, §8

[19] = molecular target: T19, PIM2 (Homo sapiens, UniProt Q9P1W9); settings: PIM2, 1 µM; read-out: Residual Activity (%)
T19 construct: purchased ProQinase
Method: as §1, §2, §3, §4, §5, §6, §7, §8

[20] = molecular target: T20, NEK3 (Homo sapiens, UniProt P51956); settings: NEK3, 1 µM; read-out: Residual Activity (%)
T20 construct: purchased ProQinase
Method: as §1, §2, §3, §4, §5, §6, §7, §8

[21] = molecular target: T21, FLT3 (Homo sapiens, UniProt P36888); settings: FLT3, 1 µM; read-out: Residual Activity (%)
T21 construct: purchased ProQinase
Method: as §1, §2, §3, §4, §5, §6, §7, §8

[22] = molecular target: T22, MARK3 (Homo sapiens, UniProt P27448); settings: MARK3, 1 µM; read-out: Residual Activity (%)
T22 construct: purchased ProQinase
Method: as §1, §2, §3, §4, §5, §6, §7, §8

[23] = molecular target: T23, NEK9 (Homo sapiens, UniProt Q8TD19); settings: NEK9, 1 µM; read-out: Residual Activity (%)
T23 construct: purchased ProQinase
Method: as §1, §2, §3, §4, §5, §6, §7, §8

[24] = molecular target: T24, mTOR (Homo sapiens, UniProt P42345); settings: read-out: Residual Activity (%)
T24 construct: purchased ProQinase
Method: as §1, §2, §3, §4, §5, §6, §7, §8

[25] = molecular target: T25, PHKG1 (Homo sapiens, UniProt Q16816); settings: PHKG1, 1 µM; read-out: Residual Activity (%)
T25 construct: purchased ProQinase
Method: as §1, §2, §3, §4, §5, §6, §7, §8

[26] = molecular target: T26, EPHA6 (Homo sapiens, UniProt Q9UF33); settings: EPHA6, 1 µM; read-out: Residual Activity (%)
T26 construct: purchased ProQinase
Method: as §1, §2, §3, §4, §5, §6, §7, §8

[27] = molecular target: T27, RON (Homo sapiens, UniProt Q04912); settings: read-out: Residual Activity (%)
T27 construct: purchased ProQinase
Method: as §1, §2, §3, §4, §5, §6, §7, §8

T25 sequence (Q16816 whole entry): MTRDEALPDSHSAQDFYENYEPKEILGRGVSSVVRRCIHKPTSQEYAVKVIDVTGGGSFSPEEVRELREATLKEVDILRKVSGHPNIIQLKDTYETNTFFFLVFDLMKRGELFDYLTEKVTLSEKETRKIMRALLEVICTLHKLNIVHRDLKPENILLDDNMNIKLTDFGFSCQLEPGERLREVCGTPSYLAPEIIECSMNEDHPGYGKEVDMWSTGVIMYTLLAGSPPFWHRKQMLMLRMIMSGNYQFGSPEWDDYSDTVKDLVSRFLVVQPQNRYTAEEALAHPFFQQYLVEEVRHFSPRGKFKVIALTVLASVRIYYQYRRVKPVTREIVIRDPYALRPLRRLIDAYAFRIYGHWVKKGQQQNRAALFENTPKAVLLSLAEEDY
T22 sequence (P27448 whole entry): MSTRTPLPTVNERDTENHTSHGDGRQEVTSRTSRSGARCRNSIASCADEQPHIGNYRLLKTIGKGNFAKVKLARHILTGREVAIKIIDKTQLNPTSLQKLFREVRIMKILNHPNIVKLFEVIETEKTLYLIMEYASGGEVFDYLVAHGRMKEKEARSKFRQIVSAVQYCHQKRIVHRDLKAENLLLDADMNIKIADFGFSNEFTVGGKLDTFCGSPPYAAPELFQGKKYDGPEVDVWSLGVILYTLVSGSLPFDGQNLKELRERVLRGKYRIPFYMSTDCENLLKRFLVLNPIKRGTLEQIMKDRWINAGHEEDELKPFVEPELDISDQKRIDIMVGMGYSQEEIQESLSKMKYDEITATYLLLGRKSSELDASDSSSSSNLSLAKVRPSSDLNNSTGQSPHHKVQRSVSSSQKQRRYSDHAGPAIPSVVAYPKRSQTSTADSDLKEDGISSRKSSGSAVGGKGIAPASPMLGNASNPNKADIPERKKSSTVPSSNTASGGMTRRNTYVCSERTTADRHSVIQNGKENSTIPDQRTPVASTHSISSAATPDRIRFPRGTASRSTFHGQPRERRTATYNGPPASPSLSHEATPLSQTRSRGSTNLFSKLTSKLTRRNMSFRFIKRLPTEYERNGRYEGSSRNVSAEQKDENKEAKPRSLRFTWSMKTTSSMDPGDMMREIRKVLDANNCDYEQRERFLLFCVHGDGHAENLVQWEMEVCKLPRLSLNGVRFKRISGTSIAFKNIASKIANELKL
T26 sequence (Q9UF33 23-1036): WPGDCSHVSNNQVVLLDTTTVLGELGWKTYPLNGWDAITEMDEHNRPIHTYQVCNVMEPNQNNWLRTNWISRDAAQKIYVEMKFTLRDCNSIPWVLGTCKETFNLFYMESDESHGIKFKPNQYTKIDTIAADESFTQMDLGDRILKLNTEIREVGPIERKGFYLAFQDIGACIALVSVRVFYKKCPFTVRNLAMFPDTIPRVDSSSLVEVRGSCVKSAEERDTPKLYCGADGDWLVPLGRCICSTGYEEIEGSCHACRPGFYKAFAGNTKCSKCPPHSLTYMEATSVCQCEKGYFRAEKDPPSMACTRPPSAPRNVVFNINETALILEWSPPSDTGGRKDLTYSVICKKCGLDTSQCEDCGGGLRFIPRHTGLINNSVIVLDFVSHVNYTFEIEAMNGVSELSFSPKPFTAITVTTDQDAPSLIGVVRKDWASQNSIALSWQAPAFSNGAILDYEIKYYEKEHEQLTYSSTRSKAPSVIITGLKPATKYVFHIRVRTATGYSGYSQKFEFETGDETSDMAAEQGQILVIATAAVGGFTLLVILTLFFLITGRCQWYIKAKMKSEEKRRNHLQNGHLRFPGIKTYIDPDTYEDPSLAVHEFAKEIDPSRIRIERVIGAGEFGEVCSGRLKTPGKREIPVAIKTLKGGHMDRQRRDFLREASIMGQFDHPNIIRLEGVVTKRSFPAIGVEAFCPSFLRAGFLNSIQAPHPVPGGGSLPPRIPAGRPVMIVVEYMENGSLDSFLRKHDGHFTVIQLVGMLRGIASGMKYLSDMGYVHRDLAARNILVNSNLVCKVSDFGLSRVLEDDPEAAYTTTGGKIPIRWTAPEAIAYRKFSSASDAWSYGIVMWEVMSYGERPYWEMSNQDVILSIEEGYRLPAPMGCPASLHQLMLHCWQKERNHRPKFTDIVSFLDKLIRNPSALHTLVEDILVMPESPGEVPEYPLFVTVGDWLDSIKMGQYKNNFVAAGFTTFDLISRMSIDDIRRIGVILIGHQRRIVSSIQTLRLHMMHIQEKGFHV
T4 sequence (P29597 whole entry): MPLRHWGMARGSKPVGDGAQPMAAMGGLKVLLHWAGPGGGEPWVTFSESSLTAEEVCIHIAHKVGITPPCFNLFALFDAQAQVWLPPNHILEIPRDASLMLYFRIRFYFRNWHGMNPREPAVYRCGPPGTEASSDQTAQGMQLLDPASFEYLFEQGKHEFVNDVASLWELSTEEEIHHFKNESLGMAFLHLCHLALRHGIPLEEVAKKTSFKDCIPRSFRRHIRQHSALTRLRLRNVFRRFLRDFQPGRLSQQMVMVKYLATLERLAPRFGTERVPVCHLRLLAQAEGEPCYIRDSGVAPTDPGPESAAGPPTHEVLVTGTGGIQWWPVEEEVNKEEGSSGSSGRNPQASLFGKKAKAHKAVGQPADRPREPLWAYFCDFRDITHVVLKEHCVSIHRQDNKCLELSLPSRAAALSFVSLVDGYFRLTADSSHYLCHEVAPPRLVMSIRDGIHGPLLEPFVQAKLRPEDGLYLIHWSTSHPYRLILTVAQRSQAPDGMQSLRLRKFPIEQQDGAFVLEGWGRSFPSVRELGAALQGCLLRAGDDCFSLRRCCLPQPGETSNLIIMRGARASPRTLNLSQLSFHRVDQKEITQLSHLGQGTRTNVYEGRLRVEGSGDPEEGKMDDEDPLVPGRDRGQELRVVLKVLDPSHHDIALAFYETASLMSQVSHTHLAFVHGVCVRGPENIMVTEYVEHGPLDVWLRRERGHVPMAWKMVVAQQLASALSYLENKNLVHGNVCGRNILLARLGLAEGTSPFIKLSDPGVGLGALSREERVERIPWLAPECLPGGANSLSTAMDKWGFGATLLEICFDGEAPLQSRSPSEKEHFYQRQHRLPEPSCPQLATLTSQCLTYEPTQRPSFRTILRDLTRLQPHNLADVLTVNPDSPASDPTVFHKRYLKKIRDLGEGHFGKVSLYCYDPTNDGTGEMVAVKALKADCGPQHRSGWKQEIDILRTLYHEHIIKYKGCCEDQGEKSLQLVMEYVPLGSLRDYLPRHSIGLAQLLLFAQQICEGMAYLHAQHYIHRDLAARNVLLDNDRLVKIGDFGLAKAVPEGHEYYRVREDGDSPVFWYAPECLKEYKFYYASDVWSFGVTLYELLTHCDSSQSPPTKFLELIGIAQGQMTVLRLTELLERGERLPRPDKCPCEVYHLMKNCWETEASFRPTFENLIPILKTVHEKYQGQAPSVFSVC
T23 sequence (Q8TD19 whole entry): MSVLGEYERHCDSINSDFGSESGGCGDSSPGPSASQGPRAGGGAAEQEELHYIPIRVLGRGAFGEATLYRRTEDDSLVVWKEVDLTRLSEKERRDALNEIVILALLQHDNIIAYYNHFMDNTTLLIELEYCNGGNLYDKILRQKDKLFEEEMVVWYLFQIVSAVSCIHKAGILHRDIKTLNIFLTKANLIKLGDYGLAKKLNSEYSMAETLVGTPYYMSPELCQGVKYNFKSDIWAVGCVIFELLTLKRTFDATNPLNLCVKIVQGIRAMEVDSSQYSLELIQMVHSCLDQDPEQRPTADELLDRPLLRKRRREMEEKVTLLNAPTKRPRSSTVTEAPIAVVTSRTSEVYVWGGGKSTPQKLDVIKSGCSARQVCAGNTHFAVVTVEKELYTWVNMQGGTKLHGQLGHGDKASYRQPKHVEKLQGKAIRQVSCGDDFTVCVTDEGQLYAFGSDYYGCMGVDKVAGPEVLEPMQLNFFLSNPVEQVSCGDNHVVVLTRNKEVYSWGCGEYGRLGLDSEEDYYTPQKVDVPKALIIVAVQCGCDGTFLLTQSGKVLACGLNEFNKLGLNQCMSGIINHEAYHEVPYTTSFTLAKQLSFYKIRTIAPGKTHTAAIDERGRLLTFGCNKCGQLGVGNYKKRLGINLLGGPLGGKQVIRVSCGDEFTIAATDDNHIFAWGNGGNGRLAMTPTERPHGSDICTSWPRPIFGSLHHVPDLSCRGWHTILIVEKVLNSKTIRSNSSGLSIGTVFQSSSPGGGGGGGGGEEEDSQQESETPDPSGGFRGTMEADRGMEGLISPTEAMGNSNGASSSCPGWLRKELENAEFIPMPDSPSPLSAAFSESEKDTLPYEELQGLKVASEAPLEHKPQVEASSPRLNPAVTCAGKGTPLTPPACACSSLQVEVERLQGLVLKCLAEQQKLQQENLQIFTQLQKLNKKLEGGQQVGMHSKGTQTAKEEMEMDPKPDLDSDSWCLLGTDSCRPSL
T14 sequence (Q9H4B4 whole entry): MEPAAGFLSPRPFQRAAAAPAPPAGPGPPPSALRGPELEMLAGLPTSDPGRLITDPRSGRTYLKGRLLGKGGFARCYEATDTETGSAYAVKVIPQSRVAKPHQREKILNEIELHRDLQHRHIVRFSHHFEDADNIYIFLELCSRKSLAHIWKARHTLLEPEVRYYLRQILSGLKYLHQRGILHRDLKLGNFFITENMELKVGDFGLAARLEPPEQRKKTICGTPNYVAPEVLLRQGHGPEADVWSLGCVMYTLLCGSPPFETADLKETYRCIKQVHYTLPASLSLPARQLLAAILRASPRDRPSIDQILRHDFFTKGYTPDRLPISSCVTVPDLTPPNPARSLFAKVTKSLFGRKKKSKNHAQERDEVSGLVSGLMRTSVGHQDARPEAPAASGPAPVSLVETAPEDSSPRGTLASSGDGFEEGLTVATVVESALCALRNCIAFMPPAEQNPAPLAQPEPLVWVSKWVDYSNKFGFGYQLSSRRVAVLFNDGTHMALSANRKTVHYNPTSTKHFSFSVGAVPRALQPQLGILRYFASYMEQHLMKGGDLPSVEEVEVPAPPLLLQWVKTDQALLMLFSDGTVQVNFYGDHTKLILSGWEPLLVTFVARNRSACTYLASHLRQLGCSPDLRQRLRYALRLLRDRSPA

## COc1ccc(-c2cc(C(=O)Nc3cc(-c4c(-c5ccc(F)cc5)noc4C(C)C)ccn3)n(CC3NCC(O)C3O)c2)cc1 (stereo not drawn) [29d]
[1]
  remaining activity at 1 µM: 98%
[2]
  remaining activity at 1 µM: 108%
[3]
  remaining activity at 1 µM: 94%
[4]
  remaining activity at 1 µM: 85%
[5]
  remaining activity at 1 µM: 80%
[6]
  remaining activity at 1 µM: 98%
[7]
  remaining activity at 1 µM: 119%
[8]
  remaining activity at 1 µM: 110%
[9]
  remaining activity at 1 µM: 88%
[10]
  remaining activity at 1 µM: 101%
[11]
  remaining activity at 1 µM: 87%
[12]
  remaining activity at 1 µM: 97%
[13]
  remaining activity at 1 µM: 80%
[14]
  remaining activity at 1 µM: 112%
[15]
  remaining activity at 1 µM: 116%
[16]
  remaining activity at 1 µM: 99%
[17]
  remaining activity at 1 µM: 103%
[18]
  remaining activity at 1 µM: 96%
[19]
  remaining activity at 1 µM: 84%
[20]
  remaining activity at 1 µM: 96%
[21]
  remaining activity at 1 µM: 87%
[22]
  remaining activity at 1 µM: 96%
[23]
  remaining activity at 1 µM: 91%
[24]
  remaining activity at 1 µM: 127%
[25]
  remaining activity at 1 µM: 90%
[26]
  remaining activity at 1 µM: 108%
[27]
  remaining activity at 1 µM: 115%
